IC50 data for 34 molecules are collected here from patent US12522602B2, “Derivatives having 2,3-dihydro-1H-indene or 2,3-dihydrobenzofuran moiety or pharmaceutically acceptable salt thereof and pharmaceutical compositions comprising the same” (YUHAN CORPORATION, priority 2019, dated 2026).

In this assay the test system is GM1 production in Jurkat cells. Description: cells. In kind it is cell-based. Particulars: Homo sapiens, Jurkat, 72 h.

In general, IC50 refers to the concentration needed to halve the response being measured. Higher therefore signals weaker potency in that assay.

For `CC1(C)Cc2cc(-c3ccc(F)c(F)c3)ccc2C1NC(=O)O[C@@H]1CN2CCC1CC2` (stereo partly drawn) [Example 87, (S)-quinuclidin-3-yl (5-(3,4-difluorophenyl)-2,2-dimethyl-2,3-dihydro-1H-inden-1-yl)carbamate], the IC50 worked out at 42.8 nM. This counts as double-digit nanomolar. The figure for `CC1(C)Cc2cc(-c3cc(F)ccc3F)ccc2C1NC(=O)O[C@@H]1CN2CCC1CC2` (stereo partly drawn) [Example 88, (S)-quinuclidin-3-yl (5-(2,5-difluorophenyl)-2,2-dimethyl-2,3-dihydro-1H-inden-1-yl)carbamate] is 11.1 nM; for `CC1(C)Cc2cc(-c3ccc(F)cc3F)ccc2C1NC(=O)O[C@@H]1CN2CCC1CC2` (stereo partly drawn) [Example 89, (S)-quinuclidin-3-yl (5-(2,4-difluorophenyl)-2,2-dimethyl-2,3-dihydro-1H-inden-1-yl)carbamate] it is 50 nM; for `CC1(C)Cc2cc(-c3cc(F)cc(F)c3)ccc2C1NC(=O)O[C@@H]1CN2CCC1CC2` (stereo partly drawn) [Example 90, (S)-quinuclidin-3-yl (5-(3,5-difluorophenyl)-2,2-dimethyl-2,3-dihydro-1H-inden-1-yl)carbamate] it is 37.9 nM. The molecule `CC1(C)Cc2cc(-c3cccc(F)c3F)ccc2C1NC(=O)O[C@@H]1CN2CCC1CC2` (stereo partly drawn) [Example 91, (S)-quinuclidin-3-yl (5-(2,3-difluorophenyl)-2,2-dimethyl-2,3-dihydro-1H-inden-1-yl)carbamate] gave a half-maximal inhibitory concentration (IC50) of 25.1 nM. The figure for `CC1(C)Cc2cc(-c3ccc(Cl)c(Cl)c3)ccc2C1NC(=O)O[C@@H]1CN2CCC1CC2` (stereo partly drawn) [Example 92, (S)-quinuclidin-3-yl (5-(3,4-dichlorophenyl)-2,2-dimethyl-2,3-dihydro-1H-inden-1-yl)carbamate] is 43.9 nM. Take `CC1(C)Cc2cc(-c3cc(Cl)ccc3Cl)ccc2C1NC(=O)O[C@@H]1CN2CCC1CC2` (stereo partly drawn) [Example 93, (S)-quinuclidin-3-yl (5-(2,5-dichlorophenyl)-2,2-dimethyl-2,3-dihydro-1H-inden-1-yl)carbamate]: the IC50 was 10.5 nM.

`CC1(C)Cc2cc(-c3cc(Cl)cc(Cl)c3)ccc2C1NC(=O)O[C@@H]1CN2CCC1CC2` (stereo partly drawn) [Example 94, (S)-quinuclidin-3-yl (5-(3,5-dichlorophenyl)-2,2-dimethyl-2,3-dihydro-1H-inden-1-yl)carbamate] yielded an IC50 of 23.6 nM.

`CC1(C)Cc2cc(-c3ccc(F)c(F)c3F)ccc2C1NC(=O)O[C@@H]1CN2CCC1CC2` (stereo partly drawn) [Example 95, (S)-quinuclidin-3-yl (2,2-dimethyl-5-(2,3,4-trifluorophenyl)-2,3-dihydro-1H-inden-1-yl)carbamate] came in with an IC50 of 49.7 nM. `CC1(C)Cc2cc(-c3cc(F)c(F)cc3F)ccc2C1NC(=O)O[C@@H]1CN2CCC1CC2` (stereo partly drawn) [Example 96, (S)-quinuclidin-3-yl (2,2-dimethyl-5-(2,4,5-trifluorophenyl)-2,3-dihydro-1H-inden-1-yl)carbamate] showed an IC50 of 16.2 nM. `COCCOc1ccc(-c2ccc3c(c2)CC(C)(C)C3NC(=O)O[C@@H]2CN3CCC2CC3)cc1` (stereo partly drawn) [Example 97, (S)-quinuclidin-3-yl (5-(4-(2-methoxyethoxy)phenyl)-2,2-dimethyl-2,3-dihydro-1H-inden-1-yl)carbamate] returned an IC50 of 9.3 nM. On to `COCCOc1cccc(-c2ccc3c(c2)CC(C)(C)C3NC(=O)O[C@@H]2CN3CCC2CC3)c1` (stereo partly drawn) [Example 98, (S)-quinuclidin-3-yl (5-(3-(2-methoxyethoxy)phenyl)-2,2-dimethyl-2,3-dihydro-1H-inden-1-yl)carbamate], for which the IC50 turned out to be 7.5 nM. This IC50 and that of the molecule before are within 1.5-fold of each other. `COCCOc1ccccc1-c1ccc2c(c1)CC(C)(C)C2NC(=O)O[C@@H]1CN2CCC1CC2` (stereo partly drawn) [Example 99, (S)-quinuclidin-3-yl (5-(2-(2-methoxyethoxy)phenyl)-2,2-dimethyl-2,3-dihydro-1H-inden-1-yl)carbamate]: the midpoint of inhibition, the IC50, lay at 22.2 nM. Take `COCOc1ccc(-c2ccc3c(c2)CC(C)(C)C3NC(=O)O[C@@H]2CN3CCC2CC3)cc1` (stereo partly drawn) [Example 100, (S)-quinuclidin-3-yl (5-(4-(methoxymethoxy)phenyl)-2,2-dimethyl-2,3-dihydro-1H-inden-1-yl)carbamate]: the half-inhibitory concentration (IC50) worked out at 21.5 nM. As for `COCOc1cccc(-c2ccc3c(c2)CC(C)(C)C3NC(=O)O[C@@H]2CN3CCC2CC3)c1` (stereo partly drawn) [Example 101, (S)-quinuclidin-3-yl (5-(3-(methoxymethoxy)phenyl)-2,2-dimethyl-2,3-dihydro-1H-inden-1-yl)carbamate], the figure is 8.7 nM.

`COCOc1ccccc1-c1ccc2c(c1)CC(C)(C)C2NC(=O)O[C@@H]1CN2CCC1CC2` (stereo partly drawn) [Example 102, (S)-quinuclidin-3-yl (5-(2-(methoxymethoxy)phenyl)-2,2-dimethyl-2,3-dihydro-1H-inden-1-yl)carbamate] returned a 50% inhibitory concentration (IC50) of 17.4 nM.

In turn, `COc1cccc(-c2ccc3c(c2)CC(C)(C)C3NC(=O)O[C@@H]2CN3CCC2CC3)c1` (stereo partly drawn) [Example 103, (S)-quinuclidin-3-yl (5-(3-methoxyphenyl)-2,2-dimethyl-2,3-dihydro-1H-inden-1-yl)carbamate] displayed an IC50 of 19.5 nM. Molecule `CCOc1cccc(-c2ccc3c(c2)CC(C)(C)C3NC(=O)O[C@@H]2CN3CCC2CC3)c1` (stereo partly drawn) [Example 104, (S)-quinuclidin-3-yl (5-(3-ethoxyphenyl)-2,2-dimethyl-2,3-dihydro-1H-inden-1-yl)carbamate] displayed an IC50 of 16.9 nM. The molecule `CC(C)Oc1cccc(-c2ccc3c(c2)CC(C)(C)C3NC(=O)O[C@@H]2CN3CCC2CC3)c1` (stereo partly drawn) [Example 105, (S)-quinuclidin-3-yl (5-(3-isopropoxyphenyl)-2,2-dimethyl-2,3-dihydro-1H-inden-1-yl)carbamate] came in with an IC50 of 15.2 nM. `CN(C)c1cccc(-c2ccc3c(c2)CC(C)(C)C3NC(=O)O[C@@H]2CN3CCC2CC3)c1` (stereo partly drawn) [Example 106, (S)-quinuclidin-3-yl (5-(3-(dimethylamino)phenyl)-2,2-dimethyl-2,3-dihydro-1H-inden-1-yl)carbamate] gave an IC50 of 5.8 nM. As for `CSc1cccc(-c2ccc3c(c2)CC(C)(C)C3NC(=O)O[C@@H]2CN3CCC2CC3)c1` (stereo partly drawn) [Example 107, (S)-quinuclidin-3-yl (2,2-dimethyl-5-(3-(methylthio)phenyl)-2,3-dihydro-1H-inden-1-yl)carbamate], the figure is 6.3 nM. `CCc1cccc(-c2ccc3c(c2)CC(C)(C)C3NC(=O)O[C@@H]2CN3CCC2CC3)c1` (stereo partly drawn) [Example 108, (S)-quinuclidin-3-yl (5-(3-ethylphenyl)-2,2-dimethyl-2,3-dihydro-1H-inden-1-yl)carbamate] had an IC50 of 7.6 nM. This IC50 and that of the molecule before are within 1.5-fold of each other.

`CC(C)c1cccc(-c2ccc3c(c2)CC(C)(C)C3NC(=O)O[C@@H]2CN3CCC2CC3)c1` (stereo partly drawn) [Example 109, (S)-quinuclidin-3-yl (5-(3-isopropylphenyl)-2,2-dimethyl-2,3-dihydro-1H-inden-1-yl)carbamate]: the IC50 amounted to 7.8 nM.

The molecule `CC(C)(C)c1cccc(-c2ccc3c(c2)CC(C)(C)C3NC(=O)O[C@@H]2CN3CCC2CC3)c1` (stereo partly drawn) [Example 110, (S)-quinuclidin-3-yl (5-(3-(tert-butyl)phenyl)-2,2-dimethyl-2,3-dihydro-1H-inden-1-yl)carbamate] registered an IC50 of 15.1 nM. Compared with the last molecule, the IC50 is about 1.9-fold higher.

As for `CC1(C)Cc2cc(-c3ccc4c(c3)OC(F)(F)O4)ccc2C1NC(=O)O[C@@H]1CN2CCC1CC2` (stereo partly drawn) [Example 111, (S)-quinuclidin-3-yl (5-(2,2-difluorobenzo[d][1,3]dioxol-5-yl)-2,2-dimethyl-2,3-dihydro-1H-inden-1-yl)carbamate], inhibition was half-maximal at 32 nM (IC50). `CC1(C)Cc2cc(-c3ccc4c(c3)OCCO4)ccc2C1NC(=O)O[C@@H]1CN2CCC1CC2` (stereo partly drawn) [Example 112, (S)-quinuclidin-3-yl (5-(2,3-dihydrobenzo[b][1,4]dioxin-6-yl)-2,2-dimethyl-2,3-dihydro-1H-inden-1-yl)carbamate] gave an IC50 of 35.6 nM. The figure for `CC1(C)Cc2cc(-c3ccc4c(c3)CCO4)ccc2C1NC(=O)O[C@@H]1CN2CCC1CC2` (stereo partly drawn) [Example 113, (S)-quinuclidin-3-yl (5-(2,3-dihydrobenzofuran-5-yl)-2,2-dimethyl-2,3-dihydro-1H-inden-1-yl)carbamate] is 54.8 nM.

Regarding `CC1(C)Cc2cc(-c3cccc(OCCN4CCOCC4)c3)ccc2C1NC(=O)O[C@@H]1CN2CCC1CC2` (stereo partly drawn) [Example 114, (S)-quinuclidin-3-yl (2,2-dimethyl-5-(3-(2-morpholinoethoxy)phenyl)-2,3-dihydro-1H-inden-1-yl)carbamate], the IC50 came out at 33.7 nM. Turning to `CC1(C)Cc2cc(-c3ccc(OCCF)cc3)ccc2C1NC(=O)O[C@@H]1CN2CCC1CC2` (stereo partly drawn) [Example 115, (S)-quinuclidin-3-yl (5-(4-(2-fluoroethoxy)phenyl)-2,2-dimethyl-2,3-dihydro-1H-inden-1-yl)carbamate], half-maximal inhibition (IC50) was put at 38.3 nM. This IC50 and that of the molecule before are within 1.5-fold of each other. For `CC1(C)Cc2cc(-c3ccc(OCC(F)(F)F)cc3)ccc2C1NC(=O)O[C@@H]1CN2CCC1CC2` (stereo partly drawn) [Example 116, (S)-quinuclidin-3-yl (2,2-dimethyl-5-(4-(2,2,2-trifluoroethoxy)phenyl)-2,3-dihydro-1H-inden-1-yl)carbamate], the IC50 was found to be 16.7 nM. As for `CC1(C)Cc2cc(-c3ccc(OCCN4CCOCC4)cc3)ccc2C1NC(=O)O[C@@H]1CN2CCC1CC2` (stereo partly drawn) [Example 117, (S)-quinuclidin-3-yl (2,2-dimethyl-5-(4-(2-morpholinoethoxy)phenyl)-2,3-dihydro-1H-inden-1-yl)carbamate], half-maximal inhibition (IC50) was put at 41.8 nM. Against the preceding molecule, the IC50 is about 2.5-fold higher. As for `CC1(C)Cc2cc(-c3ccnc(C(F)(F)F)c3)ccc2C1NC(=O)O[C@@H]1CN2CCC1CC2` (stereo partly drawn) [Example 118, (S)-quinuclidin-3-yl (2,2-dimethyl-5-(2-(trifluoromethyl)pyridin-4-yl)-2,3-dihydro-1H-inden-1-yl)carbamate], the figure is 38.4 nM.

In turn, `CC1(C)Cc2cc(-c3cc(Cl)ncc3Cl)ccc2C1NC(=O)O[C@@H]1CN2CCC1CC2` (stereo partly drawn) [Example 119, (S)-quinuclidin-3-yl (5-(2,5-dichloropyridin-4-yl)-2,2-dimethyl-2,3-dihydro-1H-inden-1-yl)carbamate] showed an IC50 of 38.3 nM. Regarding `CN1CCOc2cc(-c3ccc4c(c3)CC(C)(C)C4NC(=O)O[C@@H]3CN4CCC3CC4)ccc21` (stereo partly drawn) [Example 120, (S)-quinuclidin-3-yl (2,2-dimethyl-5-(4-methyl-3,4-dihydro-2H-benzo[b][1,4]oxazin-7-yl)-2,3-dihydro-1H-inden-1-yl)carbamate], the 50% inhibitory concentration (IC50) amounted to 28.4 nM. The IC50 values of the last two molecules are within 1.5-fold of each other.
